# Legend:
# bile duct ligated mice = experiment: Bile duct ligation (BDL) liver fibrosis model; type: in vivo, mouse; conditions: 30 mg/kg daily
# Description: Six to eight-week-old mice were subjected to bile duct ligation to induce mouse cirrhotic liver injury model. To perform BDL, mice were subjected to a mid-abdominal incision, under general anesthesia. The common bile duct was ligated in two adjacent positions approximately 1 cm from the porta hepatis. The duct was then severed by incision between the two sites of ligation. One day after surgery, mice were administered compounds described herein at […] once daily. Drug delivery was performed by gavage in 0.5% methylcellulose with 0.1 Tween 80. Eight days after BDL surgery mice were harvested, though the harvesting can be performed at any suitable period of time, including 14 days after BDL surgery. Blood serum was collected for liver enzyme analysis and livers were harvested and were either snap frozen or fixed with 4% PFA and cryopreserved in OCT for sectioning and immunohistochemical analysis.
# To test whether the compounds described herein act as S1PR2 antagonists in vivo, their effect was tested in BDL, a clinically relevant liver cholestasis model. The common bile duct was ligated and resected as described herein to cause biliary epithelial damage. One day post-surgery, mice were treated daily with 30 mg/kg of compound 29 or JTE-013:
# In this double-blind mouse BDL study, the compounds were administered orally by gavage. […]
# [1] = tested on: BDL murine models of liver disease; conditions: multiple studies (Wang 2017; Yang 2015); cited from earlier work
# [2] = tested on: WT mice subjected to ischemia/reperfusion (I/R); conditions: I/R (Kim 2015); cited from earlier work
# S1PR2 = molecular target: T1, S1PR2 (Mus musculus, UniProt P52592); experiment: Immunoblot analysis of S1PR2 levels in liver tissue from mouse BDL study; type: in vivo; conditions: 30 mg/kg daily, orally; liver at end of eight-day study (FIG. 3)
# T1 construct: Liver tissues were collected at necropsy, flash frozen, and pulverized; from tissue; host or cells: mouse liver (bile duct ligation model)
# T1 sequence (P52592 whole entry): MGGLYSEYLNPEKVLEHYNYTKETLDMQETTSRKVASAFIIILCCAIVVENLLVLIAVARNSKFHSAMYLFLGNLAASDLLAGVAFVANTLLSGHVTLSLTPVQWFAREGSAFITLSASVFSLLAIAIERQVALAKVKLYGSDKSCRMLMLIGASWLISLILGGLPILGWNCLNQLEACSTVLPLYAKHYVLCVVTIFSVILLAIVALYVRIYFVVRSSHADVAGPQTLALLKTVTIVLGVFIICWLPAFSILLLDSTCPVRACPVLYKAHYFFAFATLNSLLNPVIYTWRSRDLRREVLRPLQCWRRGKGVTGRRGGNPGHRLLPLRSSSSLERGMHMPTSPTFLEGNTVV
# Description: Liver tissues were collected at necropsy, flash frozen, and pulverized. The powder was resuspended in RIPA lysis buffer with PI, NAF, and sodium deoxy cholate.
# Liver samples collected in an identical manner from S1PR2 global KO and WT mice served as positive controls.
structure (smiles),measurement,setting,value
Cc1nn(C)c2nc(NNC(=O)Nc3cc(Cl)nc(Cl)c3)cc(C(C)C)c12 [JTE-013],serum ALB levels,bile duct ligated mice; orally by gavage (FIG. 2C),remained constant
same,survival / mortality post bile duct ligation,"bile duct ligated mice; orally by gavage, from one day post-surgery, eight-day study (FIG. 1A)",lower than that observed for the vehicle arm
same,liver injury,[1],protect against liver injury
same,edema ratio,[2],dramatic decrease
same,infarct ratio,[2],dramatic decrease
same,neurological scores,[2],improved
same,S1PR2 levels in liver (immunoblot),S1PR2,visible
